Reference: ChEMBL document CHEMBL1140652 (Bioorg Med Chem Lett, 2007)
≈ marks a conversion by molar mass, not a printed value.

Columns and labels:
[1] = tested on: Moraxella catarrhalis; test: microbe, parasite or virus in culture
Description: Antibacterial activity against Moraxella catarrhalis BC-3531

[2] = tested on: Escherichia coli; test: microbe, parasite or virus in culture
Description: Inhibition of transcription and translation activity in Escherichia coli by luciferase reporter assay

[3] = tested on: Staphylococcus aureus; test: microbe, parasite or virus in culture; settings: SA1
Description: Antibacterial activity against Staphylococcus aureus UC76 SA1

[4] = physchem; settings: potassium phosphate buffer, pH 6.5
Description: Aqueous solubility in potassium phosphate buffer at pH 6.5 by laser nephrometry

[5] = tested on: Haemophilus influenzae; test: microbe, parasite or virus in culture
Description: Antibacterial activity against Haemophilus influenzae HI3542

[6] = tested on: Enterococcus faecalis; test: microbe, parasite or virus in culture
Description: Antibacterial activity against Enterococcus faecalis MGH2 EF1-1

[7] = tested on: Streptococcus pneumoniae; test: microbe, parasite or virus in culture; settings: SV1
Description: Antibacterial activity against Streptococcus pneumoniae SV1 SP3

Compound | MIC [1] | IC50 [2] | MIC [3] | solubility kinetic [4] | MIC [5] | MIC [6] | MIC [7]
CC(=O)NC[C@H]1CN(c2ccc3c(c2)CCCc2cn[nH]c2-3)C(=O)O1 | 2 µg/mL (≈ 5.88 µM) | 450 nM | 0.5 µg/mL (≈ 1.47 µM) | 14 µg/mL (≈ 41.1 µM) | 2 µg/mL (≈ 5.88 µM) | 0.25 µg/mL (≈ 0.734 µM) | 0.25 µg/mL (≈ 0.734 µM)
CC(=O)NC[C@H]1CN(c2ccc3c(c2)CCCc2c(N)n[nH]c2-3)C(=O)O1 | 2 µg/mL (≈ 5.63 µM) | 1200 nM | 4 µg/mL (≈ 11.3 µM) | – | 4 µg/mL (≈ 11.3 µM) | 2 µg/mL (≈ 5.63 µM) | 0.5 µg/mL (≈ 1.41 µM)
CNc1n[nH]c2c1CCCc1cc(N3C[C@H](CNC(C)=O)OC3=O)ccc1-2 | 2 µg/mL (≈ 5.41 µM) | 1000 nM | 2 µg/mL (≈ 5.41 µM) | > 70 µg/mL | 4 µg/mL (≈ 10.8 µM) | 1 µg/mL (≈ 2.71 µM) | 0.5 µg/mL (≈ 1.35 µM)
CCN(CC)CCCNc1n[nH]c2c1CCCc1cc(N3C[C@H](CNC(C)=O)OC3=O)ccc1-2 | 32 µg/mL (≈ 68.3 µM) | 13000 nM | 64 µg/mL (≈ 137 µM) | – | 32 µg/mL (≈ 68.3 µM) | 32 µg/mL (≈ 68.3 µM) | 4 µg/mL (≈ 8.54 µM)
CC(=O)NC[C@H]1CN(c2ccc3c(c2)CCCc2c(NC(C)C)n[nH]c2-3)C(=O)O1 | 8 µg/mL (≈ 20.1 µM) | 2200 nM | 4 µg/mL (≈ 10.1 µM) | – | 8 µg/mL (≈ 20.1 µM) | 2 µg/mL (≈ 5.03 µM) | 0.5 µg/mL (≈ 1.26 µM)
CC(=O)NC[C@H]1CN(c2ccc3c(c2)CCCc2c(Nc4ccccc4)n[nH]c2-3)C(=O)O1 | 2 µg/mL (≈ 4.64 µM) | – | 1 µg/mL (≈ 2.32 µM) | – | 4 µg/mL (≈ 9.27 µM) | 0.5 µg/mL (≈ 1.16 µM) | 0.5 µg/mL (≈ 1.16 µM)
CC(=O)NC[C@H]1CN(c2ccc3c(c2)CCCc2c(NCCN4CCOCC4)n[nH]c2-3)C(=O)O1 | 16 µg/mL (≈ 34.1 µM) | 1900 nM | 16 µg/mL (≈ 34.1 µM) | – | 8 µg/mL (≈ 17.1 µM) | 8 µg/mL (≈ 17.1 µM) | 2 µg/mL (≈ 4.27 µM)
CC(=O)NC[C@H]1CN(c2ccc3c(c2)CCCc2c(NC(=O)C(O)CO)n[nH]c2-3)C(=O)O1 (some centres undefined) | 32 µg/mL (≈ 72.2 µM) | 780 nM | 16 µg/mL (≈ 36.1 µM) | 46 µg/mL (≈ 104 µM) | 32 µg/mL (≈ 72.2 µM) | 16 µg/mL (≈ 36.1 µM) | 2 µg/mL (≈ 4.51 µM)
CC(=O)NC[C@H]1CN(c2ccc3c(c2)CCCc2c(NC(=O)CO)n[nH]c2-3)C(=O)O1 | 16 µg/mL (≈ 38.7 µM) | 1300 nM | 16 µg/mL (≈ 38.7 µM) | – | 16 µg/mL (≈ 38.7 µM) | 4 µg/mL (≈ 9.68 µM) | 4 µg/mL (≈ 9.68 µM)

Next, values leading:

MIC [1] | IC50 [2] | MIC [3] | solubility kinetic [4] | MIC [5] | MIC [6] | MIC [7] | Compound
4 µg/mL (≈ 8.41 µM) | 2200 nM | 1 µg/mL (≈ 2.1 µM) | – | 8 µg/mL (≈ 16.8 µM) | 1 µg/mL (≈ 2.1 µM) | 0.5 µg/mL (≈ 1.05 µM) | COc1ccc(CNc2n[nH]c3c2CCCc2cc(N4C[C@H](CNC(C)=O)OC4=O)ccc2-3)cc1
8 µg/mL (≈ 19.3 µM) | 2600 nM | 2 µg/mL (≈ 4.84 µM) | – | 1 µg/mL (≈ 2.42 µM) | 2 µg/mL (≈ 4.84 µM) | 1 µg/mL (≈ 2.42 µM) | COCCNc1n[nH]c2c1CCCc1cc(N3C[C@H](CNC(C)=O)OC3=O)ccc1-2
4 µg/mL (≈ 10 µM) | 800 nM | 32 µg/mL (≈ 80.3 µM) | > 70 µg/mL | 16 µg/mL (≈ 40.2 µM) | 16 µg/mL (≈ 40.2 µM) | 4 µg/mL (≈ 10 µM) | CC(=O)NC[C@H]1CN(c2ccc3c(c2)CCCc2c(NCCN)n[nH]c2-3)C(=O)O1
4 µg/mL (≈ 10.4 µM) | 1300 nM | 1 µg/mL (≈ 2.61 µM) | – | 4 µg/mL (≈ 10.4 µM) | 1 µg/mL (≈ 2.61 µM) | 0.25 µg/mL (≈ 0.652 µM) | CCNc1n[nH]c2c1CCCc1cc(N3C[C@H](CNC(C)=O)OC3=O)ccc1-2
8 µg/mL (≈ 20.1 µM) | 2500 nM | 2 µg/mL (≈ 5.03 µM) | – | 4 µg/mL (≈ 10.1 µM) | 1 µg/mL (≈ 2.52 µM) | 0.25 µg/mL (≈ 0.629 µM) | CCCNc1n[nH]c2c1CCCc1cc(N3C[C@H](CNC(C)=O)OC3=O)ccc1-2
8 µg/mL (≈ 17.4 µM) | 1700 nM | 8 µg/mL (≈ 17.4 µM) | – | 8 µg/mL (≈ 17.4 µM) | 1 µg/mL (≈ 2.17 µM) | 0.5 µg/mL (≈ 1.09 µM) | CC(=O)NC[C@H]1CN(c2ccc3c(c2)CCCc2c(NCCc4ccccn4)n[nH]c2-3)C(=O)O1
2 µg/mL (≈ 4.21 µM) | 2100 nM | 2 µg/mL (≈ 4.21 µM) | – | 4 µg/mL (≈ 8.41 µM) | 1 µg/mL (≈ 2.1 µM) | 0.5 µg/mL (≈ 1.05 µM) | CC(=O)NC[C@H]1CN(c2ccc3c(c2)CCCc2c(NCCc4ccc(O)cc4)n[nH]c2-3)C(=O)O1
32 µg/mL (≈ 77.4 µM) | 1800 nM | 8 µg/mL (≈ 19.3 µM) | – | 16 µg/mL (≈ 38.7 µM) | 8 µg/mL (≈ 19.3 µM) | 4 µg/mL (≈ 9.67 µM) | CC(=O)NC[C@H]1CN(c2ccc3c(c2)CCCc2c(NCCCO)n[nH]c2-3)C(=O)O1
16 µg/mL (≈ 37.4 µM) | 2900 nM | 4 µg/mL (≈ 9.36 µM) | – | 16 µg/mL (≈ 37.4 µM) | 4 µg/mL (≈ 9.36 µM) | 1 µg/mL (≈ 2.34 µM) | COCCCNc1n[nH]c2c1CCCc1cc(N3C[C@H](CNC(C)=O)OC3=O)ccc1-2
32 µg/mL (≈ 77.6 µM) | 450 nM | 32 µg/mL (≈ 77.6 µM) | > 70 µg/mL | > 64 µg/mL | 8 µg/mL (≈ 19.4 µM) | 4 µg/mL (≈ 9.7 µM) | CC(=O)NC[C@H]1CN(c2ccc3c(c2)CCCc2c(NCCCN)n[nH]c2-3)C(=O)O1
4 µg/mL (≈ 8.98 µM) | 2000 nM | 2 µg/mL (≈ 4.49 µM) | – | 8 µg/mL (≈ 18 µM) | 1 µg/mL (≈ 2.24 µM) | 1 µg/mL (≈ 2.24 µM) | CC(=O)NC[C@H]1CN(c2ccc3c(c2)CCCc2c(NCc4ccccc4)n[nH]c2-3)C(=O)O1
